A short description of data set [1]: Absorption and fluorescence. It counts as physicochemical.
Data set [2] in a line: Fluorescence lifetime measurements. It counts as physicochemical. The following applies: free and peptide incorporated forms.
Data set [3] in a line: Collisional quenching experiments on NAAzAP with free amino acids and imidazole. It counts as physicochemical.
The nature of data set [4]: Fluorescence spectra of NAAzAP in different solvents. It counts as physicochemical. The settings on record: upon lowering solvent polarity, λex 342 nm.
For data set [5] the following is noted: typical range; depends on solvent exposure and quenching; cited from earlier work.
For a further data set, the system named is CaM. The following applies: cited from earlier work.

As for `N[C@@H](Cc1ccc2cccccc1-2)C(=O)O` [AzAla, β-(1-Azulenyl)-L-Alanine], the extinction coefficient in data set [1] (S2-S0 transition) is ~ 4200 cm^−1M^−1. For the same molecule, the quantum yield result in data set [1] (relative to tryptophan) is recorded as “comparable to those of tryptophan”. Besides, the apparent emission intensity result in data set [1] (relative to tryptophan, narrower profile of the azulene emission) is listed as “nearly the same apparent emission intensity”. The fluorescence decay result in data set [2] is “simple monoexponential fluorescence decay”.
With `CCCNC(=O)C(Cc1ccc2cccccc1-2)NC(C)=O` (centres unmarked) [NAAzAP, N-Acetyl-(AzulylAlanine)-propylamide], the fluorescence quenching entry in data set [3] (quencher: free methionine) was “quenched”; in data set [3] (quencher: imidazole), “quenched”; in data set [3] (quencher: tryptophan, same conditions) it was “not by tyrosine or tryptophan”; in data set [3] (quencher: tyrosine, same conditions) it was “not by tyrosine or tryptophan”. For the same molecule, the “red shift of fluorescence spectra” value in data set [4] is on record as 6 nm.
With `N[C@@H](Cc1c[nH]c2ccccc12)C(=O)O` [Tryptophan], the “apparent Trp quantum yield (Φ)” value in data set [5] was 0.35 to 0.01.
Take “Melittin: Melittin has strong affinity for CaM”: the “affinity for CaM” value with CaM is “strong affinity for CaM”.

The values above are taken from publication PMC3547328 (Chemical communications (Cambridge, England), 2013).
